Data published in patent publication US20070179060A1, “6-(Poly-substituted aryl)-4-aminopicolinates and their use as herbicides” (priority 2006, published 2007).

Experiments:
[1] = tested on: velvetleaf (Abutilon theophrasti); assay: Postemergence herbicidal activity; assay type: in vivo; conditions: Abutilon theophrasti, post-emergence, 336 h, post-emergent, 140 g ai/ha, after 14 days; read-out: % Control ABUTH
Procedure: (§1) Seeds or nutlets of the desired test plant species were planted in Sun Gro MetroMix® 306 planting mixture, which typically has a pH of 6.0 to 6.8 and an organic matter content of about 30 percent, in plastic pots with a surface area of 64 square centimeters. When required to ensure good germination and healthy plants, a fungicide treatment and/or other chemical or physical treatment was applied. The plants were grown for 7-21 days in a greenhouse with an approximate 15 hour photoperiod which was maintained at about 23-29° C. during the day and 22-28° C. during the night. Nutrients and water were added on a regular basis and supplemental lighting was provided with overhead metal halide 1000-Watt lamps as necessary. The plants were employed for testing when they reached the first or second true leaf stage. […] The concentrated stock solutions obtained were diluted with 20 mL of an aqueous mixture containing acetone, water, isopropyl alcohol, DMSO, Atplus 411F crop oil concentrate, and Triton® X-155 surfactant in a 48.5:39:10:1.5:1.0:0.02 v/v ratio to obtain spray solutions containing the highest application rates. […] Compound requirements are based upon a 12 mL application volume at a rate of 187 L/ha. Formulated compounds were applied to the plant material with an overhead Mandel track sprayer equipped with a […] nozzles calibrated to deliver 187 L/ha over an application area of 0.503 square meters at a spray height of 18 inches (43 cm) above the average plant canopy height. Control plants were sprayed in the same manner with the solvent blank. The treated plants and control plants were placed in a greenhouse as described above and watered by sub-irrigation to prevent wash-off of the test compounds. […] By applying the well-accepted probit analysis as described by J. Berkson in Journal of the American Statistical […], 48, 565 (1953) and by D.

[2] = tested on: lambsquarter (Chenopodium album); assay: Postemergence herbicidal activity; assay type: in vivo; conditions: Chenopodium album, post-emergence, 336 h, post-emergent, 140 g ai/ha, after 14 days; read-out: % Control CHEAL
Procedure: as §1

[3] = tested on: redroot pigweed (Amaranthus retroflexus); assay: Postemergence herbicidal activity; assay type: in vivo; conditions: Amaranthus retroflexus, post-emergence, 336 h, post-emergent, 140 g ai/ha, after 14 days; read-out: % Control AMARE
Procedure: as §1

Compound	melting point	pest or weed control at 140 g/ha [1] [%]	pest or weed control at 140 g/ha [2] [%]	pest or weed control at 140 g/ha [3] [%]
COc1c(C(F)(F)F)ccc(-c2cc(N)c(Cl)c(C(=O)O)n2)c1F [Compound 107, 4-Amino-3-chloro-6-(2-fluoro-3-methoxy-4-trifluoromethylphenyl)pyridine-2-carboxylic acid]	177 to 178 °C (dec.)	100	90	80
CN(C)c1c(Cl)ccc(-c2cc(N)c(Cl)c(C(=O)O)n2)c1Cl [Compound 117, 4-Amino-3-chloro-6-[2,4-dichloro-3-(dimethylamino)phenyl]pyridine-2-carboxylic acid]	177 to 178 °C	100	100	100
CNc1c(Cl)ccc(-c2cc(N)c(Cl)c(C(=O)O)n2)c1F [Compound 118, 4-Amino-3-chloro-6-[4-chloro-2-fluoro-3-(methylamino)phenyl]pyridine-2-carboxylic acid]	185 to 186 °C	100	100	100
COc1c(C)ccc(-c2cc(N)c(Cl)c(C(=O)O)n2)c1F [Compound 119, 4-Amino-3-chloro-6-(2-fluoro-3-methoxy-4-methylphenyl)pyridine-2-carboxylic acid]	178 to 179 °C	100	95	100
Nc1cc(-c2ccc(Cl)c(C(F)F)c2Cl)nc(C(=O)O)c1Cl [Compound 126, 4-Amino-3-chloro-6-(2,4-dichloro-3-difluoromethylphenyl)pyridine-2-carboxylic acid]	182 to 183 °C (dec.)	90	100	100
Nc1cc(-c2ccc(Cl)c(C(F)C(F)(F)F)c2F)nc(C(=O)O)c1Cl (centres unmarked) [Compound 129, 4-Amino-3-chloro-6-[4-chloro-2-fluoro-3-(1,2,2,2-tetrafluoroethyl)-phenyl)pyridine-2-carboxylic acid]	175 to 176 °C (dec.)	85	90	95
CCC(F)c1c(Cl)ccc(-c2cc(N)c(Cl)c(C(=O)OC)n2)c1F (centres unmarked) [Compound 130, 4-Amino-3-chloro-6-[4-chloro-2-fluoro-3-(1-fluoropropyl)phenyl]pyridine-2-carboxylic acid, methyl ester]	165 to 167 °C (dec.)	80	95	95
Nc1cc(-c2ccc(Cl)c(OC(F)F)c2F)nc(C(=O)O)c1Cl [Compound 134, 4-Amino-3-chloro-6-(4-chloro-3-difluoromethoxy-2-fluorophenyl)pyridine-2-carboxylic acid]	179 °C (dec.)	95	90	100
